In US20260240865A1, “HARNESSING IKZF:BETA-CATENIN COMPLEXES IN THE TREATMENT OF LYMPHOCYTE ASSOCIATED DISEASES OR CONDITIONS” (Yale University, priority 2022, published 2026):

T1: Stat5, mouse (mouse, UniProt Q9JIA0 1-793)
T1 sequence: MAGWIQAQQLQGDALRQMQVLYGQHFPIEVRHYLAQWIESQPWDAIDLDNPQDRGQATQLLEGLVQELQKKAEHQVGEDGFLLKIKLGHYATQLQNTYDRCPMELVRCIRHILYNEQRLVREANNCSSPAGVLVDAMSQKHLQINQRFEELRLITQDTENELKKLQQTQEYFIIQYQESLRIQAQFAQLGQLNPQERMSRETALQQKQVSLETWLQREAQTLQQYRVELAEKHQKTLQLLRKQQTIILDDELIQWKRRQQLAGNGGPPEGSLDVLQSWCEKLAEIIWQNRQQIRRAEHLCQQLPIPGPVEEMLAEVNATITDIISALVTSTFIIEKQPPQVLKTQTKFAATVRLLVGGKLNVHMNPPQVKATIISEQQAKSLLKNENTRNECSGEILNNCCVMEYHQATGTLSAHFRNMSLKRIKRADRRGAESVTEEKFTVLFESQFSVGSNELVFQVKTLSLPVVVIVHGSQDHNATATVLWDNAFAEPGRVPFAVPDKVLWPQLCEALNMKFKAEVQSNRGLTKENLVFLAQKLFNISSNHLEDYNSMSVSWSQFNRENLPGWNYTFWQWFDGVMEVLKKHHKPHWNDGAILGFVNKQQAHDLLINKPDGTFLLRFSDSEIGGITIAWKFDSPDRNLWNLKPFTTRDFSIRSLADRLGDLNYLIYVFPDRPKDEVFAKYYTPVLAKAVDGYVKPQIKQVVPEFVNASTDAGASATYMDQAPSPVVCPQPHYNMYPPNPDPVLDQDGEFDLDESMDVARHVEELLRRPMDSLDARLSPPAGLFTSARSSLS


Experiments:
[1] = tested on: β-catenin and MYC protein levels in B-ALL cells; experiment: Western blot of β-catenin and MYC after GSK3β inhibitor treatment; type: cell-based, human; conditions: for β-catenin accumulation and MYC suppression: B-ALL (PDX2) cells, 16 hours, FIGS. 7A, 7C, 18C
Description: Cells were washed twice with ice-cold PBS and were lysed in CelLytic buffer (Sigma-Aldrich) supplemented with 1% protease inhibitor cocktail (Roche Diagnostics), 1% phosphatase inhibitor cocktail (EMD Millipore) and 1 mM PMSF (CST) on ice. 10-20 μg of cell lysates were separated on precast gels (Bio-Rad) and transferred on nitrocellulose membranes (Bio-Rad). After blocking for an hour in TBS-T with 2% BSA, membranes were probed with the appropriate primary antibodies listed in Table 6. Membranes were incubated with alkaline-phosphatase conjugated secondary antibodies (Invitrogen) and analyzed with Chemi Doc™ MP Imaging System (Bio-Rad). For fractionation experiment Nuclear and Cytoplasmic Extraction Reagent (Thermo Scientific) was used according to manufacturer's instructions.

[2] = cited from earlier work; for Outcome: clinical responses / Outcome: safety: Phase 1 and 2; for Outcome: MTD: i.v.; for safety and tolerability / PK/PD profile in clinical trials: micromolar plasma concentrations (Cmax)
[3] = tested on: B-lymphoid leukemia and lymphoma cells; experiment: Cell viability assay (Cell Titer Glo 2.0) with GSK3β inhibitors; type: cell-based, human; conditions: B-lymphoid vs myeloid and epithelial cells (PDX2, BV173, LAX2 vs THP1, SW620, H82); 3 days
Description: Forty thousand patient-derived pre-B ALL cells or twenty thousand leukemia/lymphoma cell lines or ten thousand colon/lung cancer cells were seed in a volume of 80 μl in complete growth medium on 96-well plate. GSK3β3 inhibitors were added at the indicated concentration in a total volume of 100 μl. After treatment for 3 days, Cell Titer Glo 2.0 assays (Promega) were performed according to the manufacturer's instructions. Relative viability was calculated by measuring the luminescence value and normalizing it to baseline values of untreated cells.
Data are shown as mean±s.d. unless stated. Statistical analysis was performed by GraphPad Prism 7 (GraphPad Software Inc.) using unpaired two-tailed t test or log-rank test as indicated in figure legends. Significance was considered at P<0.05. Kaplan-Meier survival analysis was used to estimate OS with GraphPad Prism 7. The investigators were not blinded to allocation during experiments and outcome assessment. Experiments were repeated to ensure reproducibility of the observations.

[4] = tested on: Human B-ALL xenograft cells (SFO5); experiment: Colony formation assay of B-ALL xenograft cells; type: cell-based; conditions: SFO5, lenalidomide 0.5 μM for 2 days
Description: For colony forming assays, 10,000 mouse BCR-ABL1 or NRAS^G12D were grown on MethoCult medium (M3231 or M3630 (with IL-7) respectively, StemCell Technologies) in 3-cm diameter dishes with an extra dish filled with water to prevent evaporation. Colony forming assays with human leukemia/lymphoma cell lines were performed by plating 10,000 cells on MethoCult medium without human cytokines (H4230). For mouse pre-B cells 50.000 cells were grown on MethoCult medium with IL-7 (M3630). For colony forming assays assessing mouse myeloid progenitors, 10,000 cells were grown on MethoCult medium with mouse SCF, IL-3, IL-6, EPO (M3434). For human cord-blood derived colonies, 1000 CD34^+ HSCs were plated on MethoCult medium with recombinant human SCF, IL-3, IL-6, EPO, G-CSF, GM-CSF (H4435). For all colony forming experiments, colonies were imaged and counted using GelCount (Oxford Optronix) and 7-14 days after plating.

[5] = tested on: B-cell lymphoma cell lines; experiment: Drug responses (AUC) to CHIR99021 across B-cell lymphoma cell lines; type: cell-based, human; conditions: 84 B-cell lymphoma cell lines; 8q24+ n=31, 8q24- n=53; P=5.2E-07
From the text: In some embodiments, the IC50 can be calculated by using the Broad Repurposing Library and the PRISM multiplexed cell-line viability assay. Any assay or technique known in the art can be used for the calculation of the IC50 for the purposed of the present invention. The mutation data for CTNNB1, APC, AXIN1, AXIN2 and GSK3β genes were acquired from https://cancer.sanger.ac.uk/cosmic. The data for RIC staining of β-catenin was obtained from https://www.proteinatlas.org/. The RNA-seq data and mass spectrometry data for β-catenin and IKZF1 in human cancer cell lines were obtained from depmap.org/portal/download/. Data for drug-response of solid tumor cell lines to were acquired from depmap.org/portal/download/. Hallmark Myc-Targets V1 and Hallmark Myc-Targets V2 gene sets were acquired from MSigDB. RNA-seq data was deposited to GEO with the accession number GSE196767 and ChIP-seq data was deposited to GEO with accession number GSE196745. All other data are available from the corresponding author upon reasonable request.

Stat5, mouse = biological target: T1, Stat5, mouse; experiment: co-IP with anti-β-catenin antibody and Western blot, murine B-ALL cells (FIG. 4B)
Description: Co-immunoprecipitation experiments were performed using Pierce Crosslink Magnetic IP/Co-IP kit according to manufacturer's instructions (Thermo Scientific).

| Molecule | β-catenin accumulation and MYC suppression [1] | Outcome: clinical responses [2] | safety and tolerability / PK/PD profile in clinical trials [2] | selective cell death / drug response [3] | also measured |
| --- | --- | --- | --- | --- | --- |
| O=c1sn(-c2cccc3ccccc23)c(=O)n1Cc1ccccc1 [Tideglusib] | failure to induce β-catenin accumulation and MYC-suppression | No clinical responses | demonstrated safety and tolerability at micromolar plasma concentrations | no significant activity in any cell type | Outcome: safety [2]: Phase 1 and 2, favorable safety; Outcome: MTD [2]: 120 mg |
| Nc1cccc2c1CN(C1CCC(=O)NC1=O)C2=O (stereo not drawn) [lenalidomide] | – | – | – | – | MYC expression under β-catenin accumulation ([1]; SFO5 cells, lenalidomide 0.5 μM with LY2090314 20 nM): relieved β-catenin-induced transcriptional repression of MYC; colony formation under β-catenin accumulation [4]: relieved β-catenin-induced transcriptional repression of MYC and suppression of colony formation |
| O=C1Nc2cc(Br)ccc2/C1=C1/Nc2ccccc2/C1=N\O [6-Bromoindirubin-3′-oxime] | induced massive accumulation of β-catenin in parallel with acute suppression of MYC | – | – | induced cell death at low nanomolar concentrations selectively in B-lymphoid but not myeloid and epithelial cells | – |
| Cn1cc(C2=C(c3coc4ccc(F)cc34)C(=O)NC2=O)c2cc3c(cc21)OCO3 [9-ING-41, Elraglusib] | failure to induce β-catenin accumulation and MYC-suppression | No clinical response | demonstrated safety and tolerability at micromolar plasma concentrations | broad non-specific toxicity across all cell types tested | Outcome: safety [2]: Phase 1 and 2, favorable safety |
| CHIR98014 | induced massive accumulation of β-catenin in parallel with acute suppression of MYC | – | – | induced cell death at low nanomolar concentrations selectively in B-lymphoid but not myeloid and epithelial cells | – |
| N#Cc1ccc2[nH]c(O)c(-c3ccc(CN4CCOCC4)cn3)c2c1 [AZD1080] | – | – | demonstrated safety and tolerability at micromolar plasma concentrations | – | – |
| Cc1c[nH]c(-c2cnc(NCCNc3ccc(C#N)cn3)nc2-c2ccc(Cl)cc2Cl)n1 [CHIR99021, Laduviglusib] | induced massive accumulation of β-catenin in parallel with acute suppression of MYC | No clinical responses | demonstrated safety and tolerability at micromolar plasma concentrations | – | sensitivity of B-cell lymphoma cell lines with MYC-rearrangement (8q24+) vs without [5]: substantially less sensitive; Outcome: MTD [2]: 80 mg |
| β-catenin (Ctnnb1), mouse (other, UniProt Q02248 2-781, looked up, Protein from lysates of BCR-ABL1-transformed Ctnnb1^ex3fl/+ murine B-ALL cells, immunoprecipitated with antibody 14/β-catenin; After Cre-ER^T2/4-OHT one allele lacks exon 3 (GSK3β phosphorylation sites), so the stabilised exon-3-deleted form and the wild type are both present) ATQADLMELDMAMEPDRKAAVSHWQQQSYLDSGIHSGATTTAPSLSGKGNPEEEDVDTSQVLYEWEQGFSQSFTQEQVADIDGQYAMTRAQRVRAAMFPETLDEGMQIPSTQFDAAHPTNVQRLAEPSQMLKHAVVNLINYQDDAELATRAIPELTKLLNDEDQVVVNKAAVMVHQLSKKEASRHAIMRSPQMVSAIVRTMQNTNDVETARCTAGTLHNLSHHREGLLAIFKSGGIPALVKMLGSPVDSVLFYAITTLHNLLLHQEGAKMAVRLAGGLQKMVALLNKTNVKFLAITTDCLQILAYGNQESKLIILASGGPQALVNIMRTYTYEKLLWTTSRVLKVLSVCSSNKPAIVEAGGMQALGLHLTDPSQRLVQNCLWTLRNLSDAATKQEGMEGLLGTLVQLLGSDDINVVTCAAGILSNLTCNNYKNKMMVCQVGGIEALVRTVLRAGDREDITEPAICALRHLTSRHQEAEMAQNAVRLHYGLPVVVKLLHPPSHWPLIKATVGLIRNLALCPANHAPLREQGAIPRLVQLLVRAHQDTQRRTSMGGTQQQFVEGVRMEEIVEGCTGALHILARDVHNRIVIRGLNTIPLFVQLLYSPIENIQRVAAGVLCELAQDKEAAEAIEAEGATAPLTELLHSRNEGVATYAAAVLFRMSEDKPQDYKKRLSVELTSSLFRTEPMAWNETADLGLDIGAQGEALGYRQDDPSYRSFHSGGYGQDALGMDPMMEHEMGGHHPGADYPVDGLPDLGHAQDLMDGLPPGDSNQLAWFDTDL | – | – | – | – | binding result (Stat5, mouse): no binding |
